According to patent US20230144436A1, “MUSCLE TARGETING COMPLEXES AND USES THEREOF FOR TREATING MYOTONIC DYSTROPHY” (Dyne Therapeutics, Inc., priority 2020, published 2023):

Legend:
DMPK [1] = experiment: DMPK knockdown by transfected antisense oligonucleotides in DM1 C15 myotubes at 0.5 nM and 50 nM; format: cell-based; conditions: 72 hours; for Normalized DMPK Remaining: relative to vehicle control = 1.00
Procedure, shortened: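 Seven-day-differentiated DM1 C15 myotubes transfected (Lipofectamine MessengerMax) with each oligonucleotide at 0.5 nM or 50 nM final, biological triplicates. After 72 h, DMPK mRNA quantified by qPCR, expressed relative to vehicle-only transfection set to 1.00.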

DMPK [2] = experiment: Dose-responsive DMPK reduction in DM1 C15 myotubes (EC-50); format: cell-based; conditions: DM1 C15 differentiated myotubes, 72 hours; for EC50: transfection with Lipofectamine MessengerMax, 0.046-100 nM; for Percent DMPK reduction at 100 nM: transfection
Procedure: Eighteen oligonucleotides from Example 7 were selected to be evaluated for their ability to reduce DMPK expression in a dose-responsive manner. DM1 C15 myoblasts were prepared as in Example 7 to yield differentiated myotubes in 96-well microplates. After seven days of differentiation, cells were transfected with individual oligonucleotides using Lipofectamine MessengerMax. Each oligonucleotide was tested in triplicate at concentrations of 0.046 nM, 0.137 nM, 0.412 nM, 1.235 nM, 3.704 nM, 11.11 nM, 33.33 nM, and 100 nM by 3-fold serial dilutions using 0.3 μL of Lipofectamine MessengerMax per well.
Following addition of oligonucleotide, cells were incubated for 72 hours prior to harvesting for total RNA. cDNA was synthesized from the total RNA extracts and qPCR was performed to determine expression levels of DMPK using a commercially available Taqman probeset in technical quadruplicate. All qPCR data were analyzed using a traditional ΔΔCT method and were normalized to a plate-based negative control that comprised of cells treated with vehicle control (0.3 μL/well Lipofectamine MessengerMax without any oligonucleotide). Data for each oligonucleotide to was fit to sigmoidal curve in order to determine an effective concentration of each oligonucleotide that provided a half-maximal response (EC-50).

[3] = 0.5 nM oligonucleotide, qPCR, relative to vehicle control
[4] = 50 nM oligonucleotide, qPCR, relative to vehicle control

| Substance | Percent DMPK Reduction (DMPK [1]; [3]) [%] | Normalized DMPK Remaining (DMPK [1]; 0.5 nM oligonucleotide, qPCR) | Percent DMPK Reduction (DMPK [1]; [4]) [%] | Normalized DMPK Remaining (DMPK [1]; 50 nM oligonucleotide, qPCR) | EC50 (DMPK [2]) [nM] | Percent DMPK reduction at 100 nM (DMPK [2]) [%] | Percent DMPK Reduction (DMPK [1]; 0.5 nM oligonucleotide) [%] | Normalized DMPK Remaining (DMPK [1]; 0.5 nM oligonucleotide) | Percent DMPK Reduction (DMPK [1]; 50 nM oligonucleotide) [%] | Normalized DMPK Remaining (DMPK [1]; 50 nM oligonucleotide) |
| --- | --- | --- | --- | --- | --- | --- | --- | --- | --- | --- |
| 257 (CAUGGCAUACACCUGGCCCG; chemistry not given here) [compound 257] | 31.63 | 0.68 | 74.03 | 0.26 | 0.42 | 75.28 | – | – | – | – |
| 260 (CGAAUGUCCGACAGUGUCUC; chemistry not given here) [compound 260] | 40.21 | 0.60 | 64.42 | 0.36 | 0.18 | 95.93 | – | – | – | – |
| 270 (GGGCCUGGGACCUCACUGUC; chemistry not given here) [compound 270] | 37.19 | 0.63 | 76.81 | 0.23 | 0.07 | 90.58 | – | – | – | – |
| 272 (CUCUGCCGCAGGGACAGCCG; chemistry not given here) [compound 272] | 37.09 | 0.63 | 93.59 | 0.06 | 0.42 | 93.66 | – | – | – | – |
| 278 (CCAUCUCGGCCGGAAUCCGC; chemistry not given here) [compound 278] | 20.50 | 0.79 | 59.76 | 0.40 | 0.44 | 95.42 | – | – | – | – |
| 280 (UUGCCAUAGGUCUCCGCCGU; chemistry not given here) [compound 280] | 36.30 | 0.64 | 60.12 | 0.40 | 0.37 | 93.70 | – | – | – | – |
| 286 (GCUUCAUCUUCACUACCGCU; chemistry not given here) [compound 286] | 31.44 | 0.69 | 51.78 | 0.48 | 0.03 | 64.06 | – | – | – | – |
| 288 (CAGGGACAGCCGCUGGAACU; chemistry not given here) [compound 288] | 32.09 | 0.68 | 58.84 | 0.41 | 6.04 | 90.59 | – | – | – | – |
| 293 (GAAUGUCCGACAGUGUCUCC; chemistry not given here) [compound 293] | 30.09 | 0.70 | 63.41 | 0.37 | 0.07 | 97.23 | – | – | – | – |
| 294 (CGUUCCAUCUGCCCGCAGCU; chemistry not given here) [compound 294] | 33.74 | 0.66 | 68.72 | 0.31 | 0.19 | 89.97 | – | – | – | – |
| 299 (GCAGGAUGUUGUCGGGUUUG; chemistry not given here) [compound 299] | 44.39 | 0.56 | 78.03 | 0.22 | 0.168 | 89.77 | – | – | – | – |
| 301 (UGUUGUCGGGUUUGAUGUCC; chemistry not given here) [compound 301] | 21.00 | 0.79 | 42.19 | 0.58 | 0.21 | 93.95 | – | – | – | – |
| 310 (GCGUAGAAGGGCGUCUGCCC; chemistry not given here) [compound 310] | 39.53 | 0.60 | 77.91 | 0.22 | 24.6 | 95.13 | – | – | – | – |
| 313 (GGACGAUCUUGCCAUAGGUC; chemistry not given here) [compound 313] | 29.82 | 0.70 | 48.97 | 0.51 | 3.59 | 92.18 | – | – | – | – |
| 316 (AGCAGGAUGUUGUCGGGUUU; chemistry not given here) [compound 316] | 41.05 | 0.59 | 74.02 | 0.26 | 0.227 | 85.81 | – | – | – | – |
| 320 (CCCAGCGCCCACCAGUCACA; chemistry not given here) [compound 320] | 37.93 | 0.62 | 67.82 | 0.32 | 5.45 | 63.69 | – | – | – | – |
| 346 (GACAGAACAACGGCGAACAG; chemistry not given here) [compound 346] | 21.41 | 0.79 | 70.49 | 0.30 | 0.08 | 94.32 | – | – | – | – |
| 362 (GCUGUCCCGGAGACCAUCCC; chemistry not given here) [compound 362] | 22.57 | 0.77 | 66.27 | 0.34 | 3.27 | 93.07 | – | – | – | – |
| 471 (UCGGCCAGGCGGAUGUGGCC; chemistry not given here) [compound 471] | – | – | – | – | – | – | 26.53 | 0.73 | 83.04 | 0.17 |
| 472 (AAGGGAUGUGUCCGGAAGUC; chemistry not given here) [compound 472] | – | – | – | – | – | – | 10.37 | 0.90 | 73.52 | 0.26 |
| 473 (CUUGUAGUGGACGAUCUUGC; chemistry not given here) [compound 473] | – | – | – | – | – | – | 24.09 | 0.76 | 89.16 | 0.11 |
| 474 (AGUCGGCCAGGCGGAUGUGG; chemistry not given here) [compound 474] | – | – | – | – | – | – | 6.15 | 0.94 | 67.44 | 0.33 |
| 475 (GCCUCAGCCUGGCCGAAAGA; chemistry not given here) [compound 475] | – | – | – | – | – | – | -4.82 | 1.05 | 63.11 | 0.37 |
| 476 (AGCGUCACCUCGGCCUCAGC; chemistry not given here) [compound 476] | – | – | – | – | – | – | 22.10 | 0.78 | 64.70 | 0.35 |
| 477 (CAGCGGCAGAGAGAGGUGCT; chemistry not given here) [compound 477] | – | – | – | – | – | – | 4.49 | 0.96 | 86.00 | 0.14 |
| 478 (CCAGCGGCAGAGAGAGGUGC; chemistry not given here) [compound 478] | – | – | – | – | – | – | 3.23 | 0.97 | 84.55 | 0.15 |
| 479 (UUGUAGUGGACGAUCUUGCC; chemistry not given here) [compound 479] | – | – | – | – | – | – | 17.22 | 0.83 | 81.05 | 0.19 |
| 480 (AGGGAAAGCGCCUCCGAUAG; chemistry not given here) [compound 480] | – | – | – | – | – | – | -1.12 | 1.01 | 75.50 | 0.25 |
| 481 (GGGAAAGCGCCUCCGAUAGG; chemistry not given here) [compound 481] | – | – | – | – | – | – | 10.02 | 0.90 | 76.79 | 0.23 |
